Laboratory results: publication PMC3914206

What was measured:
ERK5 [1] = biological target: T1, ERK5 (Homo sapiens, UniProt Q13164); test: ERK5 autophosphorylation assay (EGF-stimulated, mobility shift immunoblot); type: cell-based; parameters: endogenous in cells; host or cells: HeLa; details: inhibition of EGF-stimulated autophosphorylation of ERK5 in HeLa cells; read-out: Cellular EC50 (ERK5)
From the text: Proteins from total cell lysates were resolved by 6% sodium dodecyl sulfate (SDS)-poly-acrylamide gel electrophoresis (PAGE), transferred to nitrocellulose membrane, blocked in 5% nonfat milk, and blotted with anti-ERK5 antibody.

ERK5 [2] = biological target: T1, ERK5; test: ERK5 kinase activity in vitro assay (32P-ATP, PIMtide substrate); type: biochemical; parameters: hexahistidine (His6) (N); made in house; host or cells: Spodoptera frugiperda 21 cells (baculovirus, Bac-to-Bac); details: for IC50: in vitro assay, recombinant active ERK5, read-out: Enzymatic IC50 (ERK5)
Experimental: pFastBAC vector encoding N-terminal hexahistidine-tagged human ERK5 and HA-tagged human MEK5-DD (constitutively active) were used to generate recombinant baculovirus using the Bac-to-Bac system (Invitrogen). […] His-tagged ERK5 was purified as described for His-tagged BRSK1[33], using 5 mL Ni-NTA-agarose resin (Qiagen) followed by gel filtration chromatography on Superdex 200HR column on an AKTA system (GE Healthcare).
Assays were carried out for 20 min at 30 °C, terminated by applying the reaction mixture onto p81 paper and the incorporated radioactivity measured as described previously.

T1 sequence (Q13164 whole entry): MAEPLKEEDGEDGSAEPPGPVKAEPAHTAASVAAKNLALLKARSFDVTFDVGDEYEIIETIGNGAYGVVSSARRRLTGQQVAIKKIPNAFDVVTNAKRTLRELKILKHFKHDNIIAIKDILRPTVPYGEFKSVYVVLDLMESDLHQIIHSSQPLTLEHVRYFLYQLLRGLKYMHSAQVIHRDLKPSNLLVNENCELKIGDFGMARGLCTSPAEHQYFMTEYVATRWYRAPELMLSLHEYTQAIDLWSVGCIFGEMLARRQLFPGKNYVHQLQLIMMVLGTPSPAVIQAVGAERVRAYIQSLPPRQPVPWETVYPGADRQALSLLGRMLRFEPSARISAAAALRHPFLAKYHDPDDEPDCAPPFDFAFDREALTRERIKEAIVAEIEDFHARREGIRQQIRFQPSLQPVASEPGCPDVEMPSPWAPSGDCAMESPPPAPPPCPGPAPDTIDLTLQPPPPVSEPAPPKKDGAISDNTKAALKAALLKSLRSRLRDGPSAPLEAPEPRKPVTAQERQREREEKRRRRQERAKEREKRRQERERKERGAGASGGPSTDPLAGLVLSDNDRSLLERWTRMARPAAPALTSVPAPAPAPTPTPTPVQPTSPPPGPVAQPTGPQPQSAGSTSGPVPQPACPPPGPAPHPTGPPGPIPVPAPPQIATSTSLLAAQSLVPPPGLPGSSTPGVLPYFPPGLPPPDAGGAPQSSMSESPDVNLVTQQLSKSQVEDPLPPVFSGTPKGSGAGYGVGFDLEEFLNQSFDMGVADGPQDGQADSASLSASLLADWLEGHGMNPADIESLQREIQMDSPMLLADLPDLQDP

Work on `COc1cc(N2CCN(C)CC2)ccc1Nc1ncc2c(n1)N(C(C)C)c1ccccc1C(=O)N2C` [Compound 18] yielded an EC50 (ERK5 [1]) of 230 ± 30 nM and an IC50 (ERK5 [2]) of 98 ± 12 nM.

`COc1cc(N2CCN(C)CC2)ccc1Nc1ncc2c(n1)N(C)c1ccc(Cl)cc1C(=O)N2C` [Compound 22] showed an EC50 (ERK5 [1]) of 11400 ± 2040 nM and an IC50 (ERK5 [2]) of 5090 ± 52 nM.

Compound `COc1cc(N2CCC(O)CC2)ccc1Nc1ncc2c(n1)N(C)c1ccccc1C(=O)N2C` [Compound 6] has an EC50 (ERK5 [1]) of 240 ± 40 nM and an IC50 (ERK5 [2]) of 297 ± 14 nM.

With `COc1cc(N2CCN(C)CC2)ccc1Nc1ncc2c(n1)N(C1CCCC1)c1ccccc1C(=O)N2C` [Compound 19] the EC50 (ERK5 [1]) was 200 ± 40 nM and the IC50 (ERK5 [2]) was 146 ± 18 nM.

`COc1cc(C(=O)NC2CCN(C)CC2)ccc1Nc1ncc2c(n1)N(C)c1ccccc1C(=O)N2C` [Compound 14] gave an EC50 (ERK5 [1]) of 320 ± 50 nM and an IC50 (ERK5 [2]) of 338 ± 18 nM.

`CCN1c2ccccc2C(=O)N(C)c2cnc(Nc3ccc(N4CCN(C)CC4)cc3OC)nc21` [Compound 17] was tested, and the EC50 (ERK5 [1]) was 200 ± 40 nM and the IC50 (ERK5 [2]) was 66 ± 7 nM.

`CN1C(=O)c2ccccc2N(C)c2nc(Nc3ccc(S(N)(=O)=O)cc3)ncc21` [Compound 8] was tested, and the EC50 (ERK5 [1]) was 310 ± 60 nM and the IC50 (ERK5 [2]) was 171 ± 16 nM.

With `COc1cc(N2CCOCC2)ccc1Nc1ncc2c(n1)N(C)c1ccccc1C(=O)N2C` [Compound 7] the EC50 (ERK5 [1]) was 260 ± 30 nM and the IC50 (ERK5 [2]) was 233 ± 19 nM.

Compound `COc1cc(N2CCN(C)CC2)ccc1Nc1ncc2c(n1)N(C)c1cc(C)ccc1C(=O)N2C` [Compound 23] has an EC50 (ERK5 [1]) of 3100 ± 620 nM and an IC50 (ERK5 [2]) of 2460 ± 260 nM.

`COc1cc(N2CCN(C)CC2)ccc1Nc1ncc2c(n1)N(C)c1ccc(F)cc1C(=O)N2C` [Compound 20] showed an EC50 (ERK5 [1]) of 1320 ± 220 nM and an IC50 (ERK5 [2]) of 873 ± 60 nM.

`COc1cc(N2CCN(C)CC2)ccc1Nc1ncc2c(n1)N(C)c1ccccc1C(=O)N2` [Compound 16] was tested, and the EC50 (ERK5 [1]) was > 1000 nM, the IC50 (ERK5 [2]) was 1450 ± 210 nM and the “fold decrease in activity for ERK5” value (ERK5 [2]; relative to compound 5) was 4 fold.

Compound `COc1cc(NCCN(C)C)ccc1Nc1ncc2c(n1)N(C)c1ccccc1C(=O)N2C` [Compound 13] has an EC50 (ERK5 [1]) of 240 ± 30 nM and an IC50 (ERK5 [2]) of 140 ± 9 nM.

With `CC(C)Oc1cc(N2CCC(O)CC2)ccc1Nc1ncc2c(n1)N(C)c1ccccc1C(=O)N2C` [Compound 12] the EC50 (ERK5 [1]) was > 500 nM and the IC50 (ERK5 [2]) was 1530 ± 172 nM.

Compound `CN1C(=O)c2ccccc2N(C)c2nc(NCCc3cnc[nH]3)ncc21` [Compound 9] has an EC50 (ERK5 [1]) of 4680 ± 520 nM and an IC50 (ERK5 [2]) of 1720 ± 221 nM.

`CN1CCC(Nc2ncc3c(n2)N(C)c2ccccc2C(=O)N3C)CC1` [Compound 10] showed an EC50 (ERK5 [1]) of 4110 ± 590 nM and an IC50 (ERK5 [2]) of 1250 ± 151 nM.

`COc1cc(N2CCN(C)CC2)ccc1Nc1ncc2c(n1)N(C)c1cc(Cl)ccc1C(=O)N2C` [Compound 21] was tested, and the EC50 (ERK5 [1]) was 1240 ± 240 nM and the IC50 (ERK5 [2]) was 1130 ± 160 nM.
